{"source": "patent US6432400B1", "about": "“Specific pancreatic lipase inhibitors and their applications” (Laboratoire Laphal (Laboratoire de Pharmacologie Appliquee), priority 1997, dated 2002)", "origin": "cited, not measured here", "key": {"pancreatic lipase": {"target": "T1, pancreatic lipase (Homo sapiens, UniProt P16233)", "T1 sequence (P16233 17-465)": "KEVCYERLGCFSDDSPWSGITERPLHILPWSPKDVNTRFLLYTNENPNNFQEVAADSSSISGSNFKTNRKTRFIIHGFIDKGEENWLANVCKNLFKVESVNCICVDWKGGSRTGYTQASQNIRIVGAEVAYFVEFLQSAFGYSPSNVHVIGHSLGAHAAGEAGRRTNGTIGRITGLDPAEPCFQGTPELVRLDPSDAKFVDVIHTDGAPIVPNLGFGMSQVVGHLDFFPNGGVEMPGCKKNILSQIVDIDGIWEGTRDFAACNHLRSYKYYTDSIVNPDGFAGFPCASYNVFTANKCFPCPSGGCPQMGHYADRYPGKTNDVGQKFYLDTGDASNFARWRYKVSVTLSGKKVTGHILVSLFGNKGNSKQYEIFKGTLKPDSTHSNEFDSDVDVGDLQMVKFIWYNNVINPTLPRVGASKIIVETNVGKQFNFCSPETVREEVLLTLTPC", "conditions": "1 mol of THL/mol of enzyme"}, "[1]": {"tested_on": "carboxylester lipase, gastric lipase and lipase stimulated by the bile salts in human milk", "conditions": "inhibits carboxylester lipase, gastric lipase and bile-salt-stimulated lipase of human milk"}}, "data": [{"smiles": "CCCCCCCCCCC[C@@H](C[C@@H]1OC(=O)[C@H]1CCCCCC)OC(=O)[C@H](CC(C)C)NC=O", "note": "[THL, tetrahydrolipstatin]", "values": [{"measurement": "inhibition of the lipolytic activity", "setting": "pancreatic lipase", "result": "complete inhibition"}, {"measurement": "specificity for pancreatic lipase", "setting": "[1]", "result": "not specific for pancreatic lipase"}]}]}
